Patent publication US20250129086A1, “COMPOUND FOR DEGRADING EGFR PROTEIN AND USE THEREOF” (TYK MEDICINES, INC., priority 2021, published 2025)

Key:
[1] = tested on: H1975 (EGFR L858R/T790M double mutation); test: Cell antiproliferative assay (CTG, 72 h), H1975; type: cell-based, human
Method in brief: (§1)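 Viability by CTG luminescence after 72 h compound exposure, normalised between blank medium and 0.1% DMSO controls, with IC50 from fitted curves. Dosing in triplicate, top 10,000 nM, 4-fold dilutions, applied about 24 h after plating 1500-2500 cells per well.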

[2] = tested on: PC-9 (EGFR exon 19 deletion); test: Cell antiproliferative assay (CTG, 72 h), PC-9; type: cell-based, human
Method in brief: as §1

[3] = tested on: HCC827 (exon 19 deletion mutation); test: Cell antiproliferative assay (CTG, 72 h), HCC827; type: cell-based, human
Method in brief: as §1

EGFR = target: T1, EGFR (Homo sapiens, UniProt P00533, DEL746-750); test: EGFR PROTAC In Cell Western assay in HCC827; type: cell-based; details: HCC827, EGFR degradation, 16 hours of incubation
T1 construct: host or cells: HCC827
Excerpt: Test Example 2 EGFR PROTAC in Cell Western Assay
HCC827 cell culture medium was purchased from Corning. Cell line HCC827 was purchased from BeNa Culture Collection; EGF Receptor (D38B1) XP Rabbit mAb antibody and β-Actin (8H10D10) Mouse mAb antibody were from CST. IRDye 800CW, IRDye 680RD, and Intercept blocking solution (PBS) were purchased from Licor. Triton-100 was purchased from sigma, and 96-well black cell culture imaging microtiter plates were purchased from Agilent.
1) HCC827 cells were cell counted and cells were inoculated into 96-well black cell culture imaging microtiter plates at a density of 40,000 cells per well, with 100 μl per well. The plate was incubated overnight in a CO2 incubator.
2) Day 1: A gradient dilution of the compound to be tested was added to the cells of the culture plate (with a starting concentration of […], 9 concentrations, a dilution ratio of 1:3, 2 duplicate wells), with a final concentration of DMSO being 0.5%, and a blank control of DMSO without compound. The plate was placed in the cell culture incubator for a final 16 hours of incubation.
3) The culture medium was removed from the 96 wells with a pipette and the residual medium was washed with […] of PBS per well on a shaker for 5 min. After the removal of PBS, cells were quickly fixed by adding 150 μl of fresh fixation buffer (3.7% paraformaldehyde) and incubated for 20 min at room temperature.
4) The fixation buffer was removed and […] of Triton elution buffer (0.3% Triton-100) was added to wash for four times on a shaker for 5 minutes each time.
5)[…] LI-COR Odyssey blocking solution was added and the cells were incubated for 1.5 hours at room temperature with slow shaking on a shaker.
6) To block the samples, a primary antibody against EGFR and Actin were prepared using Antibody Dilution Buffer at a ratio of 1:300. The blocking solution was poured out and the diluted primary antibody was added (at a total volume of 50 μl/per well). The cell plate was covered and incubated at 4° C. overnight.
7) The cell plate was washed four times with PBS+Triton X-100 for 5 minutes each time.
8) Fluorescently labeled secondary antibodies IRDye® 680RD and IRDye® 800CW were diluted with Antibody Dilution Buffer (with a ratio of 1:600, at a total volume of 50 μl/well) and then incubated for one hour at room temperature, protected from light.
9) The cell plate was washed four times with PBS+Triton X-100 for 5 minutes each time.
After pipetting the PBS thoroughly, the plate was inverted and imaged on a Burroughs imager. A multiple exposure program was selected, IRDye 680RD Blot was chosen for the first channel, and IRDye 800CW Blot was chosen for the second channel. […] The blank group was the DMSO group, EGFR/Actin was calculated as the EGFR value of the corresponding sample wells, and the degradation rate=100-100*EGFR signal/DMSO signal. The DC50 and Dmax of the degraded EGFR proteins were calculated by fitting curves using the Prism software, 3-parameter method.

[4] = Homo sapiens, NCI-H1975, 72 h, Table 2, H1975 cells
[5] = Homo sapiens, PC-9, 72 h, Table 2, PC-9 cells
[6] = Homo sapiens, HCC827, 72 h, Table 2, HCC827 cells

T1 sequence (P00533 with tags, fused parts or gaps DEL746-750): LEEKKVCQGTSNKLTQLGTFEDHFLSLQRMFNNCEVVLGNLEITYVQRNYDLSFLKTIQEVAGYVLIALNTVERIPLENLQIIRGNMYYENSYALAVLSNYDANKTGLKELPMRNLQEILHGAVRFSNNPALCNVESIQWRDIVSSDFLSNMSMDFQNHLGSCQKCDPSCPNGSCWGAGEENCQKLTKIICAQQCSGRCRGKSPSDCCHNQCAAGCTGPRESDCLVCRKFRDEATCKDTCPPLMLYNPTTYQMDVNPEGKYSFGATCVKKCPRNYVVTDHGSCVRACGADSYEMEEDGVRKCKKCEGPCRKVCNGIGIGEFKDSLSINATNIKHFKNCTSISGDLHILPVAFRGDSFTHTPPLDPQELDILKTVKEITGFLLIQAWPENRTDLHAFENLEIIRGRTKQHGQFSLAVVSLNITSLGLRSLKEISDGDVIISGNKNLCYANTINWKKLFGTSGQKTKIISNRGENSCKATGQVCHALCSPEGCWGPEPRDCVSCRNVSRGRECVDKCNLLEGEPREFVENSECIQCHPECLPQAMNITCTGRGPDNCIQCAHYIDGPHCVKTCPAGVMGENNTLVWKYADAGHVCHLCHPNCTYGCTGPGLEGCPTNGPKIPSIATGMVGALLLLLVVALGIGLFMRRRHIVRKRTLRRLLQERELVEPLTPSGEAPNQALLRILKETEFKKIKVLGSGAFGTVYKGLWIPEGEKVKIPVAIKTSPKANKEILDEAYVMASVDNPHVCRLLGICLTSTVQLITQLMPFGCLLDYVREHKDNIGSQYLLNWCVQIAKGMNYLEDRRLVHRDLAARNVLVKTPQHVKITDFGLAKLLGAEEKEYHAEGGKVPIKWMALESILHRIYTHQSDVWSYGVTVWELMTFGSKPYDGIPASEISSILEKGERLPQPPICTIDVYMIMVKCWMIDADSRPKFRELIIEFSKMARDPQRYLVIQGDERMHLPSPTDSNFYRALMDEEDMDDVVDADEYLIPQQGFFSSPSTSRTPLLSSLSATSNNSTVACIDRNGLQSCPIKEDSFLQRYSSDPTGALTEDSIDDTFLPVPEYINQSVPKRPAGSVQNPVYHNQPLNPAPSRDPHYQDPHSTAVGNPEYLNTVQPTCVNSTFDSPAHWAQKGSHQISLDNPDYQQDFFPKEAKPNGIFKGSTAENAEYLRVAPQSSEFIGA

Row | IC50 [1, 4] [nM] | IC50 ([1]; Homo sapiens, NCI-H1975, 72 h, Table 3, H1975 cells) [nM] | IC50 [2, 5] [nM] | IC50 ([2]; Homo sapiens, PC-9, 72 h, Table 3, PC-9 cells) [nM] | IC50 [3, 6] [nM] | IC50 ([3]; Homo sapiens, HCC827, 72 h, Table 3, HCC827 cells) [nM] | Dmax (EGFR; HCC827, Table 4) [%] | Dmax (EGFR; HCC827, Table 5) [%] | DC50 (EGFR; Table 4) [nM] | DC50 (EGFR; Table 5) [nM] | IC50 ([1]; Table 2, H1975 cells) [nM] | IC50 ([2]; Table 2, PC-9 cells) [nM] | IC50 ([3]; Table 2, HCC827 cells) [nM] | Dmax(%) (EGFR; Table 4) | SMILES
1 | ≤ 10 | 7.72 | 100 to 1000 | 122 | 10 to 100 | 14.2 | 70 to 100 | 70.8 | 10 to 100 | 10.2 | – | – | – | – | CNC(=O)c1ccccc1Nc1nc(Nc2ccc(N3CCN(C(=O)CN4CCC(c5ccc(NC6CCC(=O)NC6=O)cc5)CC4)CC3)cc2OC)ncc1Cl (centres unmarked) [Compound T-184]
2 | ≤ 10 | – | 100 to 1000 | – | 10 to 100 | – | 70 to 100 | – | ≤ 10 | – | – | – | – | – | CNC(=O)c1ccccc1Nc1nc(Nc2ccc(N3CCN(C(=O)CN4CCC(c5ccc(NC6CCC(=O)NC6=O)cc5)CC4)CC3)cc2OC)ncc1Br (centres unmarked) [Compound T-185]
3 | 10 to 100 | – | 100 to 1000 | – | 100 to 1000 | – | 50 to 70 | – | ≥ 1000 | – | – | – | – | – | COc1cc(N2CCN(C(=O)CN3CCC(c4ccc(NC5CCC(=O)NC5=O)cc4)CC3)CC2)ccc1Nc1ncc(Cl)c(Nc2ccccc2C(=O)C(C)C)n1 (centres unmarked) [Compound T-190]
4 | ≤ 10 | – | 100 to 1000 | – | 100 to 1000 | – | 50 to 70 | – | ≤ 10 | – | – | – | – | – | COc1cc(N2CCN(C(=O)CN3CCC(c4ccc(NC5CCC(=O)NC5=O)cc4)CC3)CC2)ccc1Nc1ncc(Cl)c(Nc2ccccc2C(=O)N(C)C)n1 (centres unmarked) [Compound T-198]
5 | – | – | – | – | – | – | – | – | 10 to 100 | – | 10 to 100 | 100 to 1000 | 100 to 1000 | C (C<50%) | COc1cc(N2CCC(N(C)C(=O)CN3CCC(c4ccc(NC5CCC(=O)NC5=O)cc4)CC3)CC2)ccc1Nc1ncc(C(F)(F)F)c(Nc2ccccc2C(C)=O)n1 (centres unmarked) [Compound T-224]
6 | 10 to 100 | – | 100 to 1000 | – | 10 to 100 | – | 50 to 70 | – | 10 to 100 | – | – | – | – | – | COc1cc(N2CCN(C(=O)CN3CCC(c4ccc(NC5CCC(=O)NC5=O)cc4)CC3)CC2)c(-c2cnn(C)c2)cc1Nc1ncc(Cl)c(Nc2ccccc2C(C)=O)n1 (centres unmarked) [Compound T-233]
7 | ≤ 10 | – | 10 to 100 | – | 10 to 100 | – | 70 to 100 | – | ≤ 10 | – | – | – | – | – | COc1cc(N2CCN(C(=O)CN3CCC(c4ccc(NC5CCC(=O)NC5=O)cc4)CC3)CC2)ncc1Nc1ncc(C(F)(F)F)c(Nc2ccccc2C(C)=O)n1 (centres unmarked) [Compound T-246]
8 | ≤ 10 | – | 10 to 100 | – | 10 to 100 | – | 70 to 100 | – | 10 to 100 | – | – | – | – | – | CNC(=O)c1ccccc1Nc1nc(Nc2cc(C)c(N3CCN(C(=O)CN4CCC(c5ccc(NC6CCC(=O)NC6=O)cc5)CC4)CC3)cc2OC)ncc1Cl (centres unmarked) [Compound T-254]
9 | 100 to 1000 | – | 100 to 1000 | – | 100 to 1000 | – | < 50 | – | 10 to 100 | – | – | – | – | – | CC(=O)c1ccccc1Nc1nc(Nc2ccc(N3CCN(C(=O)CN4CCC(c5ccc(NC6CCC(=O)NC6=O)cc5)CC4)CC3)cc2Cl)ncc1Cl (centres unmarked) [Compound T-333]

The next lines start with the compound.

Row | SMILES | IC50 [1, 4] [nM] | IC50 ([1]; Homo sapiens, NCI-H1975, 72 h, Table 3, H1975 cells) [nM] | IC50 [2, 5] [nM] | IC50 ([2]; Homo sapiens, PC-9, 72 h, Table 3, PC-9 cells) [nM] | IC50 [3, 6] [nM] | IC50 ([3]; Homo sapiens, HCC827, 72 h, Table 3, HCC827 cells) [nM] | Dmax (EGFR; HCC827, Table 4) [%] | Dmax (EGFR; HCC827, Table 5) [%] | DC50 (EGFR; Table 4) [nM] | DC50 (EGFR; Table 5) [nM] | IC50 ([1]; Table 2, H1975 cells) [nM] | IC50 ([2]; Table 2, PC-9 cells) [nM] | IC50 ([3]; Table 2, HCC827 cells) [nM] | Dmax(%) (EGFR; Table 4)
10 | COc1cc(N2C3CCC2CN(C(=O)CN2CCC(c4ccc(NC5CCC(=O)NC5=O)cc4)CC2)C3)ccc1Nc1ncc(Cl)c(Nc2ccccc2C(C)=O)n1 (centres unmarked) [Compound T-191] | 10 to 100 | – | 100 to 1000 | – | 100 to 1000 | – | 50 to 70 | – | 100 to 1000 | – | – | – | – | –
11 | COc1nc(N2CCN(C(=O)CN3CCC(c4ccc(NC5CCC(=O)NC5=O)cc4)CC3)CC2)ccc1Nc1ncc(Cl)c(Nc2ccccc2P(C)(C)=O)n1 (centres unmarked) [Compound T-203] | 10 to 100 | – | 100 to 1000 | – | 10 to 100 | – | 50 to 70 | – | 10 to 100 | – | – | – | – | –
12 | COc1cc(N2CCC(N3CCN(C(=O)CN4CCC(c5ccc(NC6CCC(=O)NC6=O)cc5)CC4)CC3)CC2)ccc1Nc1ncc(Cl)c(Nc2ccccc2N(C)S(C)(=O)=O)n1 (centres unmarked) [Compound T-211] | 10 to 100 | – | 100 to 1000 | – | 10 to 100 | – | 50 to 70 | – | 10 to 100 | – | – | – | – | –
13 | COc1cc(N2CCC(N3CCN(C(=O)CCCCN4CCC(c5ccc(NC6CCC(=O)NC6=O)cc5)CC4)CC3)CC2)ccc1Nc1ncc(Cl)c(Nc2ccccc2N(C)S(C)(=O)=O)n1 (centres unmarked) [Compound T-220] | 10 to 100 | – | 100 to 1000 | – | 100 to 1000 | – | < 50 | – | 10 to 100 | – | – | – | – | –
14 | COc1cc(N2CCC(N3CCN(C(=O)CCCCN4CCN(c5ccc6c(c5)C(=O)N(C5CCC(=O)NC5=O)C6=O)CC4)CC3)CC2)ccc1Nc1ncc(Cl)c(Nc2ccccc2C(C)=O)n1 (centres unmarked) [Compound T-221] | 100 to 1000 | – | ≥ 1000 | – | ≥ 1000 | – | < 50 | – | 100 to 1000 | – | – | – | – | –
15 | COc1cc(N2CCN(C(=O)CN3CCC(c4ccc(NC5CCC(=O)NC5=O)cc4)CC3)CC2)ccc1Nc1ncc(Cl)c(Nc2ccccc2N(C)S(C)(=O)=O)n1 (centres unmarked) [Compound T-227] | ≤ 10 | – | 10 to 100 | – | 10 to 100 | – | 50 to 70 | – | 10 to 100 | – | – | – | – | –
16 | COc1cc(C2CCN(C(=O)CN3CCC(c4ccc(NC5CCC(=O)NC5=O)cc4)CC3)CC2)ccc1Nc1ncc(Cl)c(Nc2ccccc2C(C)=O)n1 (centres unmarked) [Compound T-334] | 100 to 1000 | – | 100 to 1000 | – | 100 to 1000 | – | < 50 | – | 100 to 1000 | – | – | – | – | –
17 | C=CC(=O)Nc1cc(Nc2ncc(Cl)c(Nc3ccccc3)n2)c(OC)cc1N1CCN(C(=O)CN2CCC(c3ccc(NC4CCC(=O)NC4=O)cc3)CC2)CC1 (centres unmarked) [Compound T-335] | 100 to 1000 | – | 100 to 1000 | – | 100 to 1000 | – | 50 to 70 | – | 100 to 1000 | – | – | – | – | –
18 | COc1cc(N2CCC(NC(=O)CN3CCC(c4ccc(NC5CCC(=O)NC5=O)cc4)CC3)CC2)ccc1Nc1ncc(Cl)c(Nc2ccccc2C(C)=O)n1 (centres unmarked) [Compound T-336] | 100 to 1000 | – | 100 to 1000 | – | 100 to 1000 | – | < 50 | – | 10 to 100 | – | – | – | – | –
